{"source": "patent US20240174647A1", "about": "(NEURON23, INC., priority 2022, published 2024)"}
{"target": "wt human LRRK2, catalytic site (Homo sapiens (Human), UniProt Q5S007)", "sequence (Q5S007 1879-2138)": "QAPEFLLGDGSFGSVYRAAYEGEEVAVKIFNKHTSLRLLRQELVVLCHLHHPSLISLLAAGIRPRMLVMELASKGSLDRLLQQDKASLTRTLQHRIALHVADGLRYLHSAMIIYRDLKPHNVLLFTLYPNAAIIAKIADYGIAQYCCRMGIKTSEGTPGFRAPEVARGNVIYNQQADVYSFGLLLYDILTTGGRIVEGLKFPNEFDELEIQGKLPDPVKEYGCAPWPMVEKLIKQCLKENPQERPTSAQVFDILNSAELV", "assay": "TR-FRET LanthaScreen Tb Kinase Activity Assay (LRRK2 kinase inhibition)", "type": "biochemical", "conditions": "2 nM wt human LRRK2, 400 nM fluorescein-ERM (LRRKtide) peptide, 38 μM ATP, 120 minutes at room temperature", "description": "The compounds in Table 1 were tested for their inhibitory effect on LRRK2 kinase according to the following procedures.\nThe protocol for basic TR-FRET LanthaScreen Tb Kinase Activity Assay inhibitor studies were as follows. LanthaScreen Kinase Activity Assays (ThermoFisher/USA) to evaluate inhibitors were performed by addition of 100 nL of test compound in corresponding DMSO dilutions/5 μL of kinase/fluorescein-ERM(LRRKtide) peptide mixture, 5 μL of ATP into 384 well small volume plates. After incubation for 120 minutes at room temperature, the detection reagents containing Tb-anti-pLRRKtide antibody were added to monitor phosphrylation level of peptide. Then, after 60 min minutes incubation at room temperature plates were read in Envision. Data analysis of emission ratios was according to LanthaScreen Tb Kinase Activity Assay protocol.\nKinase and assay components were adjusted to final concentrations according to the kit protocol. For LRRK2: 2 nM wt human LRRK2, catalytic site, catalytic site (ThermoFisher/USA), 400 nM peptide, 38 μM ATP in 1× Kinase Buffer A.\nBasic protocol for TR-FRET LanthaScreen Tb Kinase Activity Assay inhibitor studies involved two steps: • Enzymatic step: Addition of 100 nL of test compound in corresponding DMSO dilutions, 5 μL of kinase/substrate mixture, 5 μL of ATP into 384 well small volume plates. Incubation for 120 minutes at room temperature. • Detection step: Addition of 10 μL EDTA & antibody, read plate after 60 minutes. Data analysis of emission ratios according to KinEASE assay protocol.\nKinase and assay components were adjusted to final concentrations according to the kit protocol.\nIn the table below, activity is provided as follows: +++=IC50 less than 50 nM; ++=IC50 between 50 nM and 200 nM; +=IC50>=200 nM", "units": {"IC50": "nM"}}
{"compound": "CNc1nc(Nc2cccc3cnn(C)c23)ncc1C(F)(F)F", "note": "[Example 76, N4-methyl-N2-(1-methyl-1-indazol-7-yl)-5-(trifluoromethyl)pyrimidine-2,4-diamine]", "IC50": "≥ 200"}
{"compound": "CNc1nc(Nc2cccc3c2cnn3CCC(=O)N2CCOCC2)ncc1C(F)(F)F", "note": "[Example 77, 3-(4-((4-(methylamino)-5-(trifluoromethyl)pyrimidin-2-yl)amino)-1H-indazol-1-yl)-1-morpholinopropan-1-one]", "IC50": "< 50"}
{"compound": "O=S(=O)(C1CC1)n1ncc2c(Nc3ncc(C(F)(F)F)c(NC4CC4)n3)cccc21", "note": "[Example 78, N4-cyclopropyl-N2-(1-(cyclopropylsulfonyl)-1H-indazol-4-yl)-5-(trifluoromethyl)pyrimidine-2,4-diamine]", "IC50": "< 50"}
{"compound": "CNc1nc(Nc2cccc3c2cnn3C)ncc1Cl", "note": "[Example 79, 5-chloro-N4-methyl-N2-(1-methyl-1H-indazol-4-yl)pyrimidine-2,4-diamine]", "IC50": "< 50"}
{"compound": "CNc1nc(Nc2ccc(C(F)(F)F)c3c2cnn3CC#N)ncc1C(F)(F)F", "note": "[Example 80, 2-(4-((4-(methylamino)-5-(trifluoromethyl)pyrimidin-2-yl)amino)-7-(trifluoromethyl)-1H-indazol-1-yl)acetonitrile]", "IC50": "< 50"}
{"compound": "CNc1nc(Nc2ccc(C3=CCN(C)CC3)c3c2cnn3C)ncc1C(F)(F)F", "note": "[Example 81, N4-methyl-N2-(1-methyl-7-(1-methyl-1,2,3,6-tetrahydropyridin-4-yl)-1H-indazol-4-yl)-5-(trifluoromethyl)pyrimidine-2,4-diamine]", "IC50": "< 50"}
{"compound": "CNc1nc(Nc2ccc(C3CCN(C)CC3)c3c2cnn3C)ncc1C(F)(F)F", "note": "[Example 82, N4-methyl-N2-(1-methyl-7-(1-methylpiperidin-4-yl)-1H-indazol-4-yl)-5-(trifluoromethyl)pyrimidine-2,4-diamine]", "IC50": "< 50"}
{"compound": "CNc1nc(Nc2ccc(C3=CCOCC3)c3c2cnn3CC#N)ncc1C(F)(F)F", "note": "[Example 83, 2-(7-(3,6-dihydro-2H-pyran-4-yl)-4-((4-(methylamino)-5-(trifluoromethyl)pyrimidin-2-yl)amino)-1H-indazol-1-yl)acetonitrile]", "IC50": "< 50"}
{"compound": "CNc1nc(Nc2ccc(OC(F)(F)F)c3c2cnn3CC#N)ncc1C(F)(F)F", "note": "[Example 84, 2-(4-((4-(methylamino)-5-(trifluoromethyl)pyrimidin-2-yl)amino)-7-(trifluoromethoxy)-1H-indazol-1-yl)acetonitrile]", "IC50": "< 50"}
{"compound": "CNc1nc(Nc2ccc(F)c3c2cnn3CC#N)ncc1C(F)(F)F", "note": "[Example 85, 2-(7-fluoro-4-((4-(methylamino)-5-(trifluoromethyl)pyrimidin-2-yl)amino)-1H-indazol-1-yl)acetonitrile]", "IC50": "< 50"}
{"compound": "CNc1nc(Nc2ccc(C3=CCOCC3)c3c2cnn3C)ncc1C(F)(F)F", "note": "[Example 86, N2-(7-(3,6-dihydro-2H-pyran-4-yl)-1-methyl-11H-indazol-4-yl)-N4-methyl-5-(trifluoromethyl)pyrimidine-2,4-diamine]", "IC50": "< 50"}
{"compound": "CNc1nc(Nc2ccc(C3=CCN(C)CC3)c3c2cnn3CC#N)ncc1C(F)(F)F", "note": "[Example 87, 2-(7-(1-methyl-1,2,3,6-tetrahydropyridin-4-yl)-4-((4-(methylamino)-5-(trifluoromethyl)pyrimidin-2-yl)amino)-11H-indazol-1-yl)acetonitrile]", "IC50": "< 50"}
{"compound": "CNc1nc(Nc2ccc(C3CCOCC3)c3c2cnn3C)ncc1C(F)(F)F", "note": "[Example 88, N4-methyl-N2-(1-methyl-7-(tetrahydro-2H-pyran-4-yl)-1H-indazol-4-yl)-5-(trifluoromethyl)pyrimidine-2,4-diamine]", "IC50": "< 50"}
{"compound": "CNc1nc(Nc2ccc(C3CCOCC3)c3c2cnn3CC#N)ncc1C(F)(F)F", "note": "[Example 89, 2-(4-((4-(methylamino)-5-(trifluoromethyl)pyrimidin-2-yl)amino)-7-(tetrahydro-2H-pyran-4-yl)-1H-indazol-1-yl)acetonitrile]", "IC50": "< 50"}
{"compound": "CNc1nc(Nc2cc(C(F)(F)F)cc3c2cnn3CC#N)ncc1C(F)(F)F", "note": "[Example 90, 2-(4-((4-(methylamino)-5-(trifluoromethyl)pyrimidin-2-yl)amino)-6-(trifluoromethyl)-1H-indazol-1-yl)acetonitrile]", "IC50": "< 50"}
{"compound": "CNc1nc(Nc2cc(F)cc3c2cnn3CC#N)ncc1C(F)(F)F", "note": "[Example 91, 2-(6-fluoro-4-((4-(methylamino)-5-(trifluoromethyl)pyrimidin-2-yl)amino)-1H-indazol-1-yl)acetonitrile]", "IC50": "< 50"}
{"compound": "CNc1nc(Nc2cc(Cl)cc3c2cnn3CC#N)ncc1C(F)(F)F", "note": "[Example 92, 2-(6-chloro-4-((4-(methylamino)-5-(trifluoromethyl)pyrimidin-2-yl)amino)-1H-indazol-1-yl)acetonitrile]", "IC50": "< 50"}
{"compound": "N#CCn1ncc2c(Nc3ncc(C(F)(F)F)c(NC4CC4)n3)cccc21", "note": "[Example 93]", "IC50": "< 50"}
{"compound": "CNc1nc(Nc2cccc3c2cnn3CC(F)F)ncc1C(F)(F)F", "note": "[Example 94, N2-(1-(2,2-difluoroethyl)-1H-indazol-4-yl)-N4-methyl-5-(trifluoromethyl)pyrimidine-2,4-diamine]", "IC50": "< 50"}
{"compound": "N#CCn1ncc2c(Nc3ncc(C(F)(F)F)c(NC4CCCC4)n3)cccc21", "note": "[Example 95, 2-(4-((4-(cyclopentylamino)-5-(trifluoromethyl)pyrimidin-2-yl)amino)-1H-indazol-1-yl)acetonitrile]", "IC50": "< 50"}
{"compound": "N#CCn1ncc2c(Nc3ncc(C(F)(F)F)c(NC4CC(F)(F)C4)n3)cccc21", "note": "[Example 96, 2-(4-((4-((3,3-difluorocyclobutyl)amino)-5-(trifluoromethyl)pyrimidin-2-yl)amino)-1H-indazol-1-yl)acetonitrile]", "IC50": "< 50"}
{"compound": "CNc1nc(Nc2cccc3c2cnn3CC(C)(C)O)ncc1C(F)(F)F", "note": "[Example 97, 2-methyl-1-(4-((4-(methylamino)-5-(trifluoromethyl)pyrimidin-2-yl)amino)-1H-indazol-1-yl)propan-2-ol]", "IC50": "< 50"}
{"compound": "CCn1ncc2c(Nc3ncc(C(F)(F)F)c(NC)n3)cccc21", "note": "[Example 98, N2-(1-ethyl-1H-indazol-4-yl)-N4-methyl-5-(trifluoromethyl)pyrimidine-2,4 diamine]", "IC50": "< 50"}
{"compound": "CCn1ncc2c(Nc3ncc(C(F)(F)F)c(NC4CC4)n3)cccc21", "note": "[Example 99, N4-cyclopropyl-N2-(1-ethyl-1H-indazol-4-yl)-5-(trifluoromethyl)pyrimidine-2,4-diamine]", "IC50": "< 50"}
{"compound": "CNc1nc(Nc2ccc(C3=CCN(C)CC3)c3c2cnn3CC(N)=O)ncc1C(F)(F)F", "note": "[Example 100, 2-(7-(1-methyl-1,2,3,6-tetrahydropyridin-4-yl)-4-((4-(methylamino)-5-(trifluoromethyl)pyrimidin-2-yl)amino)-1H-indazol-1-yl)acetamide]", "IC50": "< 50"}
{"compound": "CNc1nc(Nc2cccc3c2cnn3S(C)(=O)=O)ncc1C(F)(F)F", "note": "[Example 101]", "IC50": "< 50"}
{"compound": "CS(=O)(=O)n1ncc2c(Nc3ncc(C(F)(F)F)c(NC4CC4)n3)cccc21", "note": "[Example 102, N4-cyclopropyl-N2-(1-(methylsulfonyl)-1H-indazol-4-yl)-5-(trifluoromethyl)pyrimidine-2,4-diamine]", "IC50": "< 50"}
{"compound": "CC(C)(C#N)n1ncc2c(Nc3ncc(C(F)(F)F)c(NC4CC4)n3)cccc21", "note": "[Example 103, 2-(4-((4-(cyclopropylamino)-5-(trifluoromethyl)pyrimidin-2-yl)amino)-1H-indazol-1-yl)-2-methylpropanenitrile]", "IC50": "< 50"}
{"compound": "N#CCn1ncc2c(Nc3ncc(C(F)(F)F)c(NCC4CC4)n3)cccc21", "note": "[Example 104, 2-(4-((4-((cyclopropylmethyl)amino)-5-(trifluoromethyl)pyrimidin-2-yl)amino)-1H-indazol-1-yl)acetonitrile]", "IC50": "< 50"}
{"compound": "CC1(Nc2nc(Nc3cccc4c3cnn4CC#N)ncc2C(F)(F)F)CC1", "note": "[Example 105, 2-(4-((4-((1-methylcyclopropyl)amino)-5-(trifluoromethyl)pyrimidin-2-yl)amino)-1H-indazol-1-yl)acetonitrile]", "IC50": "< 50"}
{"compound": "N#CCn1ncc2c(Nc3ncc(C(F)(F)F)c(NCC(F)(F)F)n3)cccc21", "note": "[Example 106, 2-(4-((4-((2,2,2-trifluoroethyl)amino)-5-(trifluoromethyl)pyrimidin-2-yl)amino)-1-indazol-1-yl)acetonitrile]", "IC50": "< 50"}
{"compound": "CN(C)c1nc(Nc2cccc3c2cnn3CC#N)ncc1C(F)(F)F", "note": "[Example 107, 2-(4-((4-(dimethylamino)-5-(trifluoromethyl)pyrimidin-2-yl)amino)-1H-indazol-1-yl)acetonitrile]", "IC50": "< 50"}
{"compound": "CC(C)Nc1nc(Nc2cccc3c2cnn3C(C)(C)C#N)ncc1C(F)(F)F", "note": "[Example 108, 2-(4-((4-(isopropylamino)-5-(trifluoromethyl)pyrimidin-2-yl)amino)-1H-indazol-1-yl)-2-methylpropanenitrile]", "IC50": "< 50"}
